Measured values reported in ChEMBL document CHEMBL3421620, “A facile synthesis of novel miconazole analogues and the evaluation of their antifungal activity” (2015).
In brackets after ≈: the same amount, converted by molar mass.

Tests used:
Assay type in all cases: functional
[1] = Antifungal activity against Trichosporon cutaneum ATCC 28592 by broth microdilution method; details: Cutaneotrichosporon cutaneum
Yarrowia lipolytica = test: Antifungal activity against Candida lipolytica by broth microdilution method
Cyberlindnera jadinii = test: Antifungal activity against Candida utilis ATCC 9226 by broth microdilution method; details: Williopsis jadinii
Nakaseomyces glabratus = test: Antifungal activity against Candida glabrata by broth microdilution method
Candida albicans [2] = test: Antifungal activity against Candida albicans Strain 22 by broth microdilution method
Candida albicans [3] = test: Antifungal activity against Candida albicans Strain 19 by broth microdilution method
Aspergillus fumigatus = test: Antifungal activity against Aspergillus fumigatus 16907 by broth microdilution method
Candida albicans [4] = test: Antifungal activity against Candida albicans Strain 4 by broth microdilution method
Mucor hiemalis = test: Antifungal activity against Mucor hiemalis ATCC 8690 by broth microdilution method
Candida parapsilosis = test: Antifungal activity against Candida parapsilosis by broth microdilution method; details: Lodderomyces parapsilosis
Candida albicans [5] = test: Antifungal activity against Candida albicans Strain 3 by broth microdilution method
Candida albicans [6] = test: Antifungal activity against Candida albicans Strain 29 by broth microdilution method
Candida albicans [7] = test: Antifungal activity against Candida albicans Strain 6 by broth microdilution method
Pichia kudriavzevii = test: Antifungal activity against Candida krusei by broth microdilution method
Candida albicans [8] = test: Antifungal activity against Candida albicans Strain 27 by broth microdilution method
Candida albicans [9] = test: Antifungal activity against Candida albicans Strain 20 by broth microdilution method
Candida albicans [10] = test: Antifungal activity against Candida albicans Strain 14 by broth microdilution method
Candida albicans [11] = test: Antifungal activity against Candida albicans Strain 15 by broth microdilution method
Candida albicans [12] = test: Antifungal activity against Candida albicans Strain 28 by broth microdilution method
Candida albicans [13] = test: Antifungal activity against Candida albicans Strain 9 by broth microdilution method
Candida albicans [14] = test: Antifungal activity against Candida albicans Strain 13 by broth microdilution method
Candida albicans [15] = test: Antifungal activity against Candida albicans Strain 21 by broth microdilution method
Candida albicans [16] = test: Antifungal activity against Candida albicans Strain 24 by broth microdilution method
Candida albicans [17] = test: Antifungal activity against Candida albicans Strain 7 by broth microdilution method
Candida albicans [18] = test: Antifungal activity against Candida albicans ATCC 10231 by broth microdilution method
Candida albicans [19] = test: Antifungal activity against Candida albicans Strain 2 by broth microdilution method
Candida albicans [20] = test: Antifungal activity against Candida albicans Strain 11 by broth microdilution method
Rhizopus arrhizus = test: Antifungal activity against Rhizopus oryzae ATCC 10329 by broth microdilution method
Candida albicans [21] = test: Antifungal activity against Candida albicans Strain 25 by broth microdilution method
Candida albicans [22] = test: Antifungal activity against Candida albicans Strain 23 by broth microdilution method
Candida albicans [23] = test: Antifungal activity against Candida albicans Strain 12 by broth microdilution method
Candida tropicalis = test: Antifungal activity against Candida tropicalis ATCC 13803 by broth microdilution method
Candida albicans [24] = test: Antifungal activity against Candida albicans Strain 1 by broth microdilution method
Candida albicans [25] = test: Antifungal activity against Candida albicans Strain 16 by broth microdilution method
Candida albicans [26] = test: Antifungal activity against Candida albicans Strain 18 by broth microdilution method
Candida albicans [27] = test: Antifungal activity against Candida albicans Strain 5 by broth microdilution method
Candida albicans [28] = test: Antifungal activity against Candida albicans Strain 17 by broth microdilution method
Candida albicans [29] = test: Antifungal activity against Candida albicans Strain 8 by broth microdilution method
Candida albicans [30] = test: Antifungal activity against Candida albicans Strain 10 by broth microdilution method
Candida albicans [31] = test: Antifungal activity against Candida albicans Strain 26 by broth microdilution method
Kluyveromyces marxianus = test: Antifungal activity against Candida pseudotropicalis by broth microdilution method

With `OCc1ccc(COC(Cn2ccnc2)c2ccc(Cl)cc2Cl)cc1` (configuration not stated) as the compound, how does the MIC [1] read?
Its MIC is 16 µg/mL (≈ 42.4 µM).

What about the MIC (Yarrowia lipolytica) of the same compound?
Its MIC is 0.25 µg/mL (≈ 0.663 µM).

And the MIC (Cyberlindnera jadinii)?
Its MIC is 0.5 µg/mL (≈ 1.33 µM).

What about the MIC (Nakaseomyces glabratus) of the same compound?
Its MIC is 0.5 µg/mL (≈ 1.33 µM).

And the MIC (Candida albicans [2])?
Its MIC is 0.12 µg/mL (≈ 0.318 µM).

And the MIC (Candida albicans [3])?
The MIC was 0.12 µg/mL (≈ 0.318 µM).

And the MIC (Aspergillus fumigatus)?
The MIC was 4 µg/mL (≈ 10.6 µM).

And the MIC (Candida albicans [4])?
The MIC was 0.12 µg/mL (≈ 0.318 µM).

What about the MIC (Mucor hiemalis) of the same compound?
Its MIC is greater than 16 µg/mL.

What about the MIC (Candida parapsilosis) of the same compound?
The MIC was 1 µg/mL (≈ 2.65 µM).

And the MIC (Candida albicans [5])?
Its MIC is 0.12 µg/mL (≈ 0.318 µM).

What about the MIC (Candida albicans [6]) of the same compound?
Its MIC is 0.5 µg/mL (≈ 1.33 µM).

And the MIC (Candida albicans [7])?
Its MIC is 0.12 µg/mL (≈ 0.318 µM).

What about the MIC (Pichia kudriavzevii) of the same compound?
Its MIC is 1 µg/mL (≈ 2.65 µM).

What about the MIC (Candida albicans [8]) of the same compound?
The MIC was 0.12 µg/mL (≈ 0.318 µM).

And the MIC (Candida albicans [9])?
Its MIC is 0.06 µg/mL (≈ 0.159 µM).

And the MIC (Candida albicans [10])?
Its MIC is 0.12 µg/mL (≈ 0.318 µM).

And the MIC (Candida albicans [11])?
Its MIC is 0.25 µg/mL (≈ 0.663 µM).

What about the MIC (Candida albicans [12]) of the same compound?
Its MIC is 0.12 µg/mL (≈ 0.318 µM).

And the MIC (Candida albicans [13])?
The MIC was 0.5 µg/mL (≈ 1.33 µM).

And the MIC (Candida albicans [14])?
Its MIC is 0.12 µg/mL (≈ 0.318 µM).

What about the MIC (Candida albicans [15]) of the same compound?
Its MIC is 0.25 µg/mL (≈ 0.663 µM).

And the MIC (Candida albicans [16])?
Its MIC is 0.12 µg/mL (≈ 0.318 µM).

What about the MIC (Candida albicans [17]) of the same compound?
Its MIC is 0.12 µg/mL (≈ 0.318 µM).

And the MIC (Candida albicans [18])?
Its MIC is 0.12 µg/mL (≈ 0.318 µM).

What about the MIC (Candida albicans [19]) of the same compound?
The MIC was 0.12 µg/mL (≈ 0.318 µM).

What about the MIC (Candida albicans [20]) of the same compound?
The MIC was 0.25 µg/mL (≈ 0.663 µM).

And the MIC (Rhizopus arrhizus)?
The MIC was greater than 16 µg/mL.

What about the MIC (Candida albicans [21]) of the same compound?
Its MIC is 0.12 µg/mL (≈ 0.318 µM).

What about the MIC (Candida albicans [22]) of the same compound?
Its MIC is 0.25 µg/mL (≈ 0.663 µM).

And the MIC (Candida albicans [23])?
Its MIC is 0.12 µg/mL (≈ 0.318 µM).

And the MIC (Candida tropicalis)?
The MIC was 0.5 µg/mL (≈ 1.33 µM).

What about the MIC (Candida albicans [24]) of the same compound?
The MIC was 0.12 µg/mL (≈ 0.318 µM).

And the MIC (Candida albicans [25])?
The MIC was 0.12 µg/mL (≈ 0.318 µM).

What about the MIC (Candida albicans [26]) of the same compound?
Its MIC is 0.06 µg/mL (≈ 0.159 µM).

What about the MIC (Candida albicans [27]) of the same compound?
The MIC was 0.12 µg/mL (≈ 0.318 µM).

What about the MIC (Candida albicans [28]) of the same compound?
The MIC was 0.12 µg/mL (≈ 0.318 µM).

And the MIC (Candida albicans [29])?
The MIC was 0.12 µg/mL (≈ 0.318 µM).

What about the MIC (Candida albicans [30]) of the same compound?
Its MIC is 0.12 µg/mL (≈ 0.318 µM).

What about the MIC (Candida albicans [31]) of the same compound?
The MIC was 0.25 µg/mL (≈ 0.663 µM).

And the MIC (Kluyveromyces marxianus)?
The MIC was 0.5 µg/mL (≈ 1.33 µM).

Which MIC [1] does the source give for `COc1ccc(CCOC(Cn2ccnc2)c2ccc(Cl)cc2Cl)cc1OC` (configuration not stated) here?
The MIC was 16 µg/mL (≈ 38 µM).

And the MIC (Yarrowia lipolytica)?
Its MIC is 0.5 µg/mL (≈ 1.19 µM).

What about the MIC (Cyberlindnera jadinii) of the same compound?
The MIC was 1 µg/mL (≈ 2.37 µM).

What about the MIC (Nakaseomyces glabratus) of the same compound?
The MIC was 0.5 µg/mL (≈ 1.19 µM).

And the MIC (Candida albicans [2])?
The MIC was 0.12 µg/mL (≈ 0.285 µM).

And the MIC (Candida albicans [3])?
The MIC was 0.12 µg/mL (≈ 0.285 µM).

And the MIC (Aspergillus fumigatus)?
The MIC was 4 µg/mL (≈ 9.49 µM).

What about the MIC (Candida albicans [4]) of the same compound?
The MIC was 0.06 µg/mL (≈ 0.142 µM).

What about the MIC (Mucor hiemalis) of the same compound?
Its MIC is greater than 16 µg/mL.

What about the MIC (Candida parapsilosis) of the same compound?
Its MIC is 2 µg/mL (≈ 4.75 µM).

What about the MIC (Candida albicans [5]) of the same compound?
The MIC was 0.12 µg/mL (≈ 0.285 µM).

What about the MIC (Candida albicans [6]) of the same compound?
Its MIC is 0.5 µg/mL (≈ 1.19 µM).

And the MIC (Candida albicans [7])?
Its MIC is 0.12 µg/mL (≈ 0.285 µM).

And the MIC (Pichia kudriavzevii)?
Its MIC is 2 µg/mL (≈ 4.75 µM).

And the MIC (Candida albicans [8])?
The MIC was 0.25 µg/mL (≈ 0.593 µM).

And the MIC (Candida albicans [9])?
Its MIC is 0.12 µg/mL (≈ 0.285 µM).

What about the MIC (Candida albicans [10]) of the same compound?
The MIC was 0.5 µg/mL (≈ 1.19 µM).

And the MIC (Candida albicans [11])?
The MIC was 0.5 µg/mL (≈ 1.19 µM).

What about the MIC (Candida albicans [12]) of the same compound?
Its MIC is 0.25 µg/mL (≈ 0.593 µM).

And the MIC (Candida albicans [13])?
Its MIC is 0.5 µg/mL (≈ 1.19 µM).

And the MIC (Candida albicans [14])?
Its MIC is 0.5 µg/mL (≈ 1.19 µM).

And the MIC (Candida albicans [15])?
The MIC was 0.5 µg/mL (≈ 1.19 µM).

What about the MIC (Candida albicans [16]) of the same compound?
The MIC was 0.5 µg/mL (≈ 1.19 µM).

What about the MIC (Candida albicans [17]) of the same compound?
The MIC was 0.5 µg/mL (≈ 1.19 µM).

And the MIC (Candida albicans [18])?
The MIC was 0.12 µg/mL (≈ 0.285 µM).

What about the MIC (Candida albicans [19]) of the same compound?
The MIC was 0.5 µg/mL (≈ 1.19 µM).

And the MIC (Candida albicans [20])?
The MIC was 0.5 µg/mL (≈ 1.19 µM).

What about the MIC (Rhizopus arrhizus) of the same compound?
Its MIC is greater than 16 µg/mL.

And the MIC (Candida albicans [21])?
Its MIC is 0.5 µg/mL (≈ 1.19 µM).

What about the MIC (Candida albicans [22]) of the same compound?
The MIC was 0.12 µg/mL (≈ 0.285 µM).

What about the MIC (Candida albicans [23]) of the same compound?
Its MIC is 0.5 µg/mL (≈ 1.19 µM).

What about the MIC (Candida tropicalis) of the same compound?
The MIC was 1 µg/mL (≈ 2.37 µM).

And the MIC (Candida albicans [24])?
The MIC was 0.5 µg/mL (≈ 1.19 µM).

And the MIC (Candida albicans [25])?
Its MIC is 0.12 µg/mL (≈ 0.285 µM).

What about the MIC (Candida albicans [26]) of the same compound?
Its MIC is 0.06 µg/mL (≈ 0.142 µM).

And the MIC (Candida albicans [27])?
Its MIC is 0.5 µg/mL (≈ 1.19 µM).

And the MIC (Candida albicans [28])?
Its MIC is 0.5 µg/mL (≈ 1.19 µM).

And the MIC (Candida albicans [29])?
Its MIC is 0.12 µg/mL (≈ 0.285 µM).

What about the MIC (Candida albicans [30]) of the same compound?
Its MIC is 0.5 µg/mL (≈ 1.19 µM).

And the MIC (Candida albicans [31])?
Its MIC is 0.5 µg/mL (≈ 1.19 µM).

And the MIC (Kluyveromyces marxianus)?
The MIC was 1 µg/mL (≈ 2.37 µM).
